Active and inactive are the calls of the source. Bounds are passed on as bounds.

This is an account of results in ChEMBL document CHEMBL1201862, “PubChem BioAssay data set” (2004).

The target of one data set is Cytochrome P450 2D6 (Homo sapiens, UniProt P10635).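 Further: CYP2D6 member of a cytochrome P450 panel assay.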
In data set [1] the target is T1, Intestinal-type alkaline phosphatase (Homo sapiens, UniProt P09923). Kind of data set: activation of human intestinal alkaline phosphatase – biochemical, luminescent, uHTS hits, set 2, dose response (AID 488817).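 Further: potency of activators that raise enzyme activity.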 It counts as functional.
For data set [2], the target named is T2, Alkaline phosphatase, tissue-nonspecific isozyme (Homo sapiens, UniProt P05186).
T2 sequence (P05186 whole entry): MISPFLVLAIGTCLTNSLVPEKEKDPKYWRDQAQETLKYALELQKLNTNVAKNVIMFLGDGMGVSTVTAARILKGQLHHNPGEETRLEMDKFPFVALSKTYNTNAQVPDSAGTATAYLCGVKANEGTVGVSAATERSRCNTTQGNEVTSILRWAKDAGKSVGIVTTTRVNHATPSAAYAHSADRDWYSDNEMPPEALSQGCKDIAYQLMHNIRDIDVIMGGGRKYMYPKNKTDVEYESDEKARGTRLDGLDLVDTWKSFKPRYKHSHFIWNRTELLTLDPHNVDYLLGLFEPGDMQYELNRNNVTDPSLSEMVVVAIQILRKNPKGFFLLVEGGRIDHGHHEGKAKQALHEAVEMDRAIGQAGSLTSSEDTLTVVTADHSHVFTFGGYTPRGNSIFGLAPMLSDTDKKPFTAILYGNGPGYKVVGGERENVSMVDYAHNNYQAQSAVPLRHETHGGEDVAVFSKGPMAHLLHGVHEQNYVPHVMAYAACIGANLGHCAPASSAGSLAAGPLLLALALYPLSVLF
Kind of data set: activation of tissue-nonspecific alkaline phosphatase – biochemical, TNAP isozyme, human IAP uHTS hits, selectivity assay for human IAP activator project, dose response (AID 488886).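 Further: potency of compounds raising TNAP activity as a selectivity check on IAP activators.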 It counts as functional.

The target in data set [3] is T1, Intestinal-type alkaline phosphatase. The data set can be described thus: human intestinal alkaline phosphatase activators, dose response, biochemical, luminescence, uHTS hits (AID 463120). It counts as functional.
The target in data set [4] is T3, Intestinal-type alkaline phosphatase (Mus musculus, UniProt P24822). Kind of data set: PubChem AID 488875. Format: functional.
The target of data set [5] is Nucleotide-binding oligomerization domain-containing protein 1 (Homo sapiens, UniProt Q9Y239). The data set can be described thus: blockers of NOD1 pathway activity – revised, SAR follow-up (AID 2333). It counts as functional.
For a further data set, the target named is Tumor necrosis factor (Homo sapiens, UniProt P01375). The data set can be described thus: analog potency on TNFa NF-kB signaling – cell-based, revised, SAR follow-up (AID 2337). It counts as functional.
In a further data set the test system is HEK293. The data set can be described thus: cells. The following applies: Homo sapiens.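 Further: cells exposed to compound for 14 hours overnight before viability readout.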
The target of data set [6] is DNA (cytosine-5)-methyltransferase 1 (Homo sapiens, UniProt P26358). Kind of data set: inhibition of DNA methylation by DNMT1 – biochemical, fluorescent molecular beacon, confirmation (AID 602386). It counts as functional.
Data set [7] deals with T4, Voltage-gated N-type calcium channel alpha-1B subunit/Amyloid beta A4 precursor protein-binding family A member 1 (Homo sapiens, UniProt Q00975+Q02410). It counts as protein assay.
In data set [8] the target is Lytic switch protein BZLF1 (Epstein-Barr virus (strain B95-8) (HHV-4) (Human herpesvirus 4), UniProt P03206). The data set can be described thus: inhibition of BZLF1 ZTA DNA binding – biochemical, fluorescence polarization, Epstein-Barr virus, 1536-well, counter-screen for EBNA-1 inhibitor project, dose response (AID 2377).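 Further: fluorescence polarization of Cy5-labelled ZRE DNA probe bound by purified Zta.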 Further details: species or system human gammaherpesvirus 4.

The target of data set [9] is T5, SUMO-activating enzyme (Homo sapiens, UniProt Q9UBT2). The data set can be described thus: blockers of UBC9-mediated SUMO conjugation – biochemical, AlphaScreen, SUMOylation inhibitor project, confirmation (AID 2018). It counts as functional.
In data set [10] the target is Epstein-Barr nuclear antigen 1 (Epstein-Barr virus (strain B95-8) (HHV-4) (Human herpesvirus 4), UniProt P03211). Kind of data set: inhibition of EBV nuclear antigen 1 DNA binding – biochemical, fluorescence polarization, 1536-well, dose response (AID 2381).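 Further: fluorescence polarization of a Cy5 DNA probe bound by EBNA-1 protein.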 Further details: species or system human gammaherpesvirus 4.
Data set [11] deals with T6, Low molecular weight phosphotyrosine protein phosphatase (Homo sapiens, UniProt P24666).
T6 sequence (P24666 whole entry): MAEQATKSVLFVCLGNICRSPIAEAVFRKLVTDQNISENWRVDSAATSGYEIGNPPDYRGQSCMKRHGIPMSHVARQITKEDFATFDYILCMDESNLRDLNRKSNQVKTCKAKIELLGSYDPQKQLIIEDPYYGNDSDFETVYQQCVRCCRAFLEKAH
Format: functional. The following applies: read-out: IC50_Mean.

In data set [12] the target is T4, Voltage-gated N-type calcium channel alpha-1B subunit/Amyloid beta A4 precursor protein-binding family A member 1. It counts as protein assay. The source holds these as a separate data set.
In data set [13] the target is T5, SUMO-activating enzyme. Kind of data set: blockers of SAE1/SAE2–UBC9 SUMO transfer – biochemical, HTRF, uHTS, primary screen (AID 2006). Format: protein-complex assay.
Data set [14] deals with T1, Intestinal-type alkaline phosphatase. The data set can be described thus: inhibition of human intestinal alkaline phosphatase – biochemical, dose response (AID 488876). It counts as functional.
A further data set has as its target T7, Aminopeptidase N (Plasmodium falciparum FcB1/Columbia, UniProt O96935).
T7 sequence (O96935 whole entry): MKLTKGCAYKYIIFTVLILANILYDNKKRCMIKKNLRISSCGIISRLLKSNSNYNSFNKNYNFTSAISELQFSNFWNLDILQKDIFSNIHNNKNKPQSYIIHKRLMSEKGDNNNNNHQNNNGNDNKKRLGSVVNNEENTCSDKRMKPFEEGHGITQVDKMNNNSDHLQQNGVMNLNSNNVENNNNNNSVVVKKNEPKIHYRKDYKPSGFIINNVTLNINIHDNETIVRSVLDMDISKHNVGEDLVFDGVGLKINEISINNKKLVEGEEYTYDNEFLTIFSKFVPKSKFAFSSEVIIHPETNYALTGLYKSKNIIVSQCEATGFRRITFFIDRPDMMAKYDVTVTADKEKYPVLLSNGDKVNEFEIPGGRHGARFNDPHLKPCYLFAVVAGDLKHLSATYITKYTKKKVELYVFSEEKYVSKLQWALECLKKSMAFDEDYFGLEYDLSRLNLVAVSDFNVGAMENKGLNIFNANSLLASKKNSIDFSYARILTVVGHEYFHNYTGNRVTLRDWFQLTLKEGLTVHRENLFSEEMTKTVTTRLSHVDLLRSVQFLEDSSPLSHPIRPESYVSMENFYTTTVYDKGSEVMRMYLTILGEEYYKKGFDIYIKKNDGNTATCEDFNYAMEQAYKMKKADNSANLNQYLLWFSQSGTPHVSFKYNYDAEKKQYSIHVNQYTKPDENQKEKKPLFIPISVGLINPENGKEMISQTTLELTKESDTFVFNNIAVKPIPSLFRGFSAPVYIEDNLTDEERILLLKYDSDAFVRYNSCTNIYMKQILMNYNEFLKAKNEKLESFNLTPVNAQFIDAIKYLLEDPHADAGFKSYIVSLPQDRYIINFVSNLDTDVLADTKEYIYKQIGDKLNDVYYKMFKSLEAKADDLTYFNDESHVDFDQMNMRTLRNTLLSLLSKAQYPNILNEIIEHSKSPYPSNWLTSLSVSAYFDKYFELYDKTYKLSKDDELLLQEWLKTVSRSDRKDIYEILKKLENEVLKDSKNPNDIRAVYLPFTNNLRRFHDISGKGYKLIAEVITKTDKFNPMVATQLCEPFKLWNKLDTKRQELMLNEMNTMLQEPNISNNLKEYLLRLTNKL
Kind of data set: malaria alanyl aminopeptidase activity blockers – biochemical, fluorogenic H-Leu-NHMec substrate, 1536-well (AID 1445). Further details: species or system Plasmodium falciparum 3D7, 3D7.

The target in another data set is Bcl-2-like protein 1 (Homo sapiens, UniProt Q07817). The data set can be described thus: blockers of BCLXL peptide binding – biochemical, fluorescence polarization, 1536-well, selectivity assay for MCL1 inhibitor project, dose response (AID 2218).
For data set [15], the target named is T2, Alkaline phosphatase, tissue-nonspecific isozyme. Kind of data set: TNAP enzyme inhibition by screening hits, dose response, selectivity assay for mouse IAP inhibitor project, biochemical, human TNAP, uHTS hits (AID 488906). Format: functional.
In data set [16] the target is T3, Intestinal-type alkaline phosphatase. Kind of data set: PubChem AID 488785. Format: functional.
In data set [17] the target is Induced myeloid leukemia cell differentiation protein Mcl-1 (Homo sapiens, UniProt Q07820). The data set can be described thus: blockers of MCL1 binding to BIM peptide – biochemical, fluorescence polarization, BIM-BH3 peptide, 1536-well, dose response (AID 2217).
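Wherever IC50 Mean is given: Dose-response confirmation assay measuring inhibition of LMPTP enzyme activity by fluorescence intensity read-out.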

T1 sequence (P09923 whole entry): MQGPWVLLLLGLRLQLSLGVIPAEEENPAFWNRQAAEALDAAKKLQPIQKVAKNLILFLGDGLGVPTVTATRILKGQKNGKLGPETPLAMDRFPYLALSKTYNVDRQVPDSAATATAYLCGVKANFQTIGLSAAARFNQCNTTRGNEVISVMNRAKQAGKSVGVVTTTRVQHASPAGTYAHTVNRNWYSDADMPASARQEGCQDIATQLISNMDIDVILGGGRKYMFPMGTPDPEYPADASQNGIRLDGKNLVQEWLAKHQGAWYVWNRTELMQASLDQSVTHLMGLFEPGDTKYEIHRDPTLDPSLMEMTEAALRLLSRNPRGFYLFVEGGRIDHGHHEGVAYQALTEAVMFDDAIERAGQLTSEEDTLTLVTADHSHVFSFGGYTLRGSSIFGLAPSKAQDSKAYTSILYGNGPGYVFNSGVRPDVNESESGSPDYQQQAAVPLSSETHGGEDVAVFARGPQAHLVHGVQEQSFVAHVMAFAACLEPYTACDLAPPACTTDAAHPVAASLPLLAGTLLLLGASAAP
T3 sequence (P24822 whole entry, the tested form may be a part): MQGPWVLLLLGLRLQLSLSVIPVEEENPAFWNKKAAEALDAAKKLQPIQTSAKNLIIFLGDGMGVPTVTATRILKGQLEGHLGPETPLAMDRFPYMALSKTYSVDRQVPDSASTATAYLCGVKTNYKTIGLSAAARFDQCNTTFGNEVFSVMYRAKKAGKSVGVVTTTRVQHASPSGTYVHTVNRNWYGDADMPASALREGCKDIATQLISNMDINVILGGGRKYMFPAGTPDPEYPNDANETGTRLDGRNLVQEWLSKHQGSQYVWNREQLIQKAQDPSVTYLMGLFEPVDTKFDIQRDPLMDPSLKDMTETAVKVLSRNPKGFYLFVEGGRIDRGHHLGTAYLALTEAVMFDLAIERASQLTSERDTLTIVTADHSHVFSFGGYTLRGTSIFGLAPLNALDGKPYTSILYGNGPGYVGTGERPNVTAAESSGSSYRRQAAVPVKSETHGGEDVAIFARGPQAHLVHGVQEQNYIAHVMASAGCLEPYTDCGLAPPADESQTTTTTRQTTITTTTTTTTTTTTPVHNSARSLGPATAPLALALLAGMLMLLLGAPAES
T5 sequence (Q9UBE0 whole entry): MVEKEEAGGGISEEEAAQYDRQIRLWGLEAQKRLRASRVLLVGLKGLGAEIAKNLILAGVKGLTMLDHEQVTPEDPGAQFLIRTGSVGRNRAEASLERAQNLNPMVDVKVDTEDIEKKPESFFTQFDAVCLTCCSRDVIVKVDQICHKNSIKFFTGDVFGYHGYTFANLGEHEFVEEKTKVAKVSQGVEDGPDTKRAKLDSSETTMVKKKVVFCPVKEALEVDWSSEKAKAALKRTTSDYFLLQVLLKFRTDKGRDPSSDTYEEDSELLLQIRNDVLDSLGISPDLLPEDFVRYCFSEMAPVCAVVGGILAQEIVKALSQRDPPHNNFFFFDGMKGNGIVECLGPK
T5 sequence (Q9UBT2 whole entry): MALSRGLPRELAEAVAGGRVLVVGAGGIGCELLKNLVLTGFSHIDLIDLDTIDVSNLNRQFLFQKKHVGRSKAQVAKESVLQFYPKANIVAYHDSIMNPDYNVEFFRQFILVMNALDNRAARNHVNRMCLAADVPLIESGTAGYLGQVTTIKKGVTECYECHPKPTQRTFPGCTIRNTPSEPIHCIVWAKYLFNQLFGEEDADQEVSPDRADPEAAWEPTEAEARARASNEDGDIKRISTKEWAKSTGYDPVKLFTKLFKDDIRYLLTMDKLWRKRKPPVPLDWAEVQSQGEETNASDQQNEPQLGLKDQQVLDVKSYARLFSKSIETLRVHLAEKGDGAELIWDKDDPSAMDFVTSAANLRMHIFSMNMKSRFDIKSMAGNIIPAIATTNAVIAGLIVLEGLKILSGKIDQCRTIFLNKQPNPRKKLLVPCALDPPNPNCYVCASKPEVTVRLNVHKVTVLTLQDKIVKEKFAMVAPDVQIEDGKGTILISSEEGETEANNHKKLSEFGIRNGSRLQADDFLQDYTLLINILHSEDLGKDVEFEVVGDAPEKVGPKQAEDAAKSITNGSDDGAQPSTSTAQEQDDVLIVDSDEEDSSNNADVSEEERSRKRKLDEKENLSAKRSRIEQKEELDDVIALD
Tumor necrosis factor, sequence (P01375 whole entry): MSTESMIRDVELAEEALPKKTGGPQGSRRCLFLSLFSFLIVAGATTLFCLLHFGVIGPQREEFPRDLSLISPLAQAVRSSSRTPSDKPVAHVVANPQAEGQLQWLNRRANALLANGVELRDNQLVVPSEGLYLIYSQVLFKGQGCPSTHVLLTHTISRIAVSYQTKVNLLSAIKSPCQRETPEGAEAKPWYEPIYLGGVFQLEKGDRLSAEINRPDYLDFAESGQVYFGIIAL
DNA (cytosine-5)-methyltransferase 1, sequence (P26358 whole entry): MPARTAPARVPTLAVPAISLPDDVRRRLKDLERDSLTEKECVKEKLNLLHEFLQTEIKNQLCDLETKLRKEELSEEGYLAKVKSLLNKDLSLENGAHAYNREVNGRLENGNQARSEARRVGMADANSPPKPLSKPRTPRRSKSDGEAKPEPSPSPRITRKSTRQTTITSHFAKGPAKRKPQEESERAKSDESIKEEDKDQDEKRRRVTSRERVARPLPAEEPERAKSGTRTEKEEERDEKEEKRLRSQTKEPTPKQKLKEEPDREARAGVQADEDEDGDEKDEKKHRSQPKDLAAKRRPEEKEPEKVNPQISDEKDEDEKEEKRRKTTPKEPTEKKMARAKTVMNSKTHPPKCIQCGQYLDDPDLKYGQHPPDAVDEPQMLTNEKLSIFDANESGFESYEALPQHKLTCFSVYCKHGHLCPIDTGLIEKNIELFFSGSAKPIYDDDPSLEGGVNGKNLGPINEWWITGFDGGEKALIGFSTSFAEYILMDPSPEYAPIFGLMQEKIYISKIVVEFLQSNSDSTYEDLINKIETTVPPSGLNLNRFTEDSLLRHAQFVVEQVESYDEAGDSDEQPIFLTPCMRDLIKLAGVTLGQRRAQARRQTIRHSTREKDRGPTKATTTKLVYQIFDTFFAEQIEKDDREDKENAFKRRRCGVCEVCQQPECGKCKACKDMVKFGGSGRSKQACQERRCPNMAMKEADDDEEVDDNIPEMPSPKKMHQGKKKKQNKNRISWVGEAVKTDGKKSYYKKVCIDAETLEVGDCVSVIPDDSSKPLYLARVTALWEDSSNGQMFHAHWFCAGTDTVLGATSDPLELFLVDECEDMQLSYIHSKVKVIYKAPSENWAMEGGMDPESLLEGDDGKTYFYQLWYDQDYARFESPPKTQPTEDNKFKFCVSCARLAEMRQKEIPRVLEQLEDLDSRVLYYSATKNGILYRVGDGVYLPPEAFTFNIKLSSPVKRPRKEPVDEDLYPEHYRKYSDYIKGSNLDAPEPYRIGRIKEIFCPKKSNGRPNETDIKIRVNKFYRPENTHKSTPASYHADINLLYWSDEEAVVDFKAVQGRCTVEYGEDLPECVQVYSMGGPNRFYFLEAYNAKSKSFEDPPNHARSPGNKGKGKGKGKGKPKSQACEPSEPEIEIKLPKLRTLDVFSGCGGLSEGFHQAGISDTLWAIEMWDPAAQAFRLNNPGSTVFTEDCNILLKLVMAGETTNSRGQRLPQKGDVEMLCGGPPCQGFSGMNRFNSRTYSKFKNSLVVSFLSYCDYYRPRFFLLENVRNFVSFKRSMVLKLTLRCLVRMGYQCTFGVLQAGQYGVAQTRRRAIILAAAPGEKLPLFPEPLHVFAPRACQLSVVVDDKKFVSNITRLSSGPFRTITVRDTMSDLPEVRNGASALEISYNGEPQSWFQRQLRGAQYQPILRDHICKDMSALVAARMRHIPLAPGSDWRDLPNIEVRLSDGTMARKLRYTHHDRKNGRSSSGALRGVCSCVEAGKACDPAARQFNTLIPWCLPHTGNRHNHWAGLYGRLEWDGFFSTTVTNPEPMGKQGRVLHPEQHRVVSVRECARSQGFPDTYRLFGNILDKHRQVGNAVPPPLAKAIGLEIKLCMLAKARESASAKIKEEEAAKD
Lytic switch protein BZLF1, sequence (P03206 whole entry): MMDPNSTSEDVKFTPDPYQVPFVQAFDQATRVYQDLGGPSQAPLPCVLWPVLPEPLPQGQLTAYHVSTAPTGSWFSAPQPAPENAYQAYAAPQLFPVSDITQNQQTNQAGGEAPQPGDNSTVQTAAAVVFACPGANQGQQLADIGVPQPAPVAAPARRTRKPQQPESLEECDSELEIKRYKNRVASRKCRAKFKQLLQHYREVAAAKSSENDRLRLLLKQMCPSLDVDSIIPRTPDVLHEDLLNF
Epstein-Barr nuclear antigen 1, sequence (P03211 whole entry): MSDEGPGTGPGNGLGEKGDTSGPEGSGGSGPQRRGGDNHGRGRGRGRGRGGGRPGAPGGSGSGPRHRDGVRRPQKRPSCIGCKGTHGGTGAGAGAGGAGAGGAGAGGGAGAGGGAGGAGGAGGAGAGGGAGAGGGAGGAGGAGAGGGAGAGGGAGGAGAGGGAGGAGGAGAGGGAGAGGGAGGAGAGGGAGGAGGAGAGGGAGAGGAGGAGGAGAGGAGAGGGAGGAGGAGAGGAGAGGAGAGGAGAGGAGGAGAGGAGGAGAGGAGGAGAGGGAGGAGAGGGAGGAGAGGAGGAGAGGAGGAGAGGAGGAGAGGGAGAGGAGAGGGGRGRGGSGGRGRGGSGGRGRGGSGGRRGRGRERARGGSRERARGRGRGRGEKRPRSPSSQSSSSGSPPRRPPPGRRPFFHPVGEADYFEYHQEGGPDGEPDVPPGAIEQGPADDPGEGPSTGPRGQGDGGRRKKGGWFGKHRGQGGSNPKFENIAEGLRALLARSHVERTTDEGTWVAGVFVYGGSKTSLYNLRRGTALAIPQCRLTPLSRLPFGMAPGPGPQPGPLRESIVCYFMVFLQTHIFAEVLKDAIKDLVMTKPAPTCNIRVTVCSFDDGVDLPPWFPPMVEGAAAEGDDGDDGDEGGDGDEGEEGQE

`COc1ccccc1NC(=O)c1nc[nH]c1C(=O)Nc1ccccc1OC`: the AC50 result at Cytochrome P450 2D6 is “inconclusive”.

Consider `COc1cc(NC(=O)NCC2CCN(Cc3ccccc3C)CC2)cc(OC)c1OC`, for which the half-maximal effective concentration (EC50) is 64.7 µM (active) in data set [1], 73.9 µM (active) in data set [2], 70 µM (active) in data set [3] and 52.6 µM (active) in [4].

Take `O=C(Nc1ccc(OC(F)(F)F)cc1)c1ccc(CN2CCc3ccccc3C2)cc1`: the IC50 in [5] was < 0.0391 µM (active); on Tumor necrosis factor it was 0.0244 µM (active); in the data set on HEK293 it was > 20 µM (inactive).

For the molecule `O=C(COc1ccc(/C=N/NC(=O)c2ccc(O)cc2)cc1)Nc1ccc([N+](=O)[O-])cc1`, the IC50 in [6] is 8.43 µM (active); in [7], > 50 µM (inactive); in data set [8] it was > 111 µM (not active); on SUMO-activating enzyme [9] it was 9.81 µM (active); in [10], 14.5 µM (not active); in data set [11], 9.58 µM (active). For the same molecule, the IC50 was 9.71 µM (active) in [12] and 8.49 µM (active) on SUMO-activating enzyme [13].

For the molecule `Nc1nnc(CC(=O)N/N=C/c2cc([N+](=O)[O-])cc(Br)c2O)s1`, the IC50 in [14] was > 100 µM (inactive); on Aminopeptidase N, 30 µM (active); at Bcl-2-like protein 1, > 109 µM (not active); in data set [15] it was 20.6 µM (active); in data set [16], 2.79 µM (active); in data set [17] it was 23.1 µM (not active).
